Data from publication PMC10479830, “Nucleoside analogs NM107 and AT-527 are antiviral against rubella virus” (PNAS Nexus, 2023).
pEC50, pIC50: −log10 of the molar value. Where two headings read alike, the source gives them in different places.

How the values were obtained:
A549 cells [1] = experiment: cell number (cell viability) in A549 cells, Hoechst 33342, automated microscopy; format: cell-based, human; settings: for cell viability in primary screen: 1 µM
Description: (§1) We developed a high-throughput, high-content, cell-based assay to monitor rubella virus infection of the human respiratory cell line A549, as the respiratory tract is infected in humans. […] We infected A549 cells with the rubella virus vaccine strain (RA27/3) and monitored infection using an antibody to the viral glycoprotein E1 (Fig. 1A) ([13]). […] To evaluate the utility of nanchangmycin as a positive control for our assay development, we performed a dose–response assay for nanchangmycin using automated fluorescent microscopy to quantify the cell number as a surrogate for cell viability and percent infection (Fig. 1A).
(§2) A549 cells were plated in 384 well plates at 3,000 cells/well, HBMEC were plated at 7,000 cells/well, or Jeg-3 cells were plated at 3,000 cells/well in 20 μL growth media. The next day, 50 nL of drugs were added to assay wells, yielding a final concentration of 1 µM. The positive control nanchangmycin (n = 32) and the negative control DMSO (n = 32) were spotted on each assay plate. One hour later, cells were infected with rubella virus at a multiplicity of infection (MOI) = 0.234 for A549s, MOI = 0.1 for HBMEC, MOI = 0.05 for Jeg-3 cells). […] HBMECs were spin-infected by centrifuging at 1,250×g for 1 h at 25°C. Cells were fixed at 48 h post infection (hpi) in 4% formaldehyde/phosphate-buffered saline (PBS) for 15 min at room temperature and then washed twice with PBS. Cells were blocked with blocking buffer [2% bovine serum albumin in PBS with 0.1% Triton X-100 (PBST)]) for 1 h and incubated with primary antibody (mouse antirubella E1, CDC, 1 μg/mL) overnight at 4°C. Cells were washed three times with PBST and incubated in secondary (1:1000 antimouse Alexa Fluor 488 and 5 μg/mL Hoechst 33342) for 1 h at room temperature. Cells were washed three times with PBST and imaged using ImageXpress Micro (Molecular Devices). Cells were imaged with a 10× objective capturing four sites per well. The total number of cells and the percentage of infected cells were measured using the MetaXpress 5.3.3 cell scoring module. The aggregated percent infection of the DMSO and 2 µM nanchangmycin control wells on each assay plate were used to calculate Z′-factors. Sample well infection was normalized to aggregated DMSO plate control wells and expressed as percentage of control (POC = [%Infection sample/Average %Infection DMSO] × 100) and Z-score (Z = [%Infection sample − Average %Infection DMSO]/Standard Deviation %Infection DMSO) in Spotfire (PerkinElmer). Candidate hits were selected as compounds with POC <40% and viability >60%, compared with vehicle control.
(§3) Drugs were purchased as powders from Selleckchem, MedchemExpress, and MedKoo and suspended in DMSO. Drugs were arrayed in 8-pt dose–response in 384 well plates. Infections were performed using the screening conditions. DMSO (n = 32) and 2 µM nanchangmycin (n = 16) were included on each validation plate as controls for normalization. Infection at each drug concentration was normalized to aggregated DMSO plate control wells and expressed as POC (POC = %Infection sample/Average %Infection DMSO cont). A nonlinear regression curve fit analysis (GraphPad Prism 8) was performed on POC infection and cell viability using log10 transformed concentration values to calculate IC50 values for infection and CC50 values for cell viability. SI was calculated as a ratio of the drug's CC50 and IC50 values (SI = CC50/IC50).

rubella RA27/3 virus = experiment: microbe, parasite or virus in culture; format: cell-based; settings: for activity against rubella in A549 cells: dose-response; for inhibition of infection in primary screen: 1 µM, compared with vehicle alone; for inhibition at 1 µM: Rubella virus, A549, read-out: inhibition of infection in primary screen
Description: as §1
as §2, with “plate.” for “plate. One hour later, cells were infected with rubella virus at a multiplicity of infection (MOI) = 0.234 for A549s, MOI = 0.1 for HBMEC, MOI = 0.05 for Jeg-3 cells).”, “Cells were washed three times with PBST and incubated in secondary (1:1000 antimouse Alexa Fluor 488 and 5 μg/mL Hoechst 33342) for 1 h at room temperature.” left out
as §3

rubella virus [2] = experiment: rubella virus infection of HBMEC, dose-response; format: cell-based; settings: dose-response
Description: Rubella virus can infect diverse tissues in vivo, and viruses can show tissue-specific dependencies on host factors. […] First, we developed assays in human brain microvascular endothelial cells (HBMECs) as a model for endothelial cells. We again used nanchangmycin to optimize the assay (Fig. 3A and B).
as §2, §3

rubella virus [3] = experiment: rubella virus infection of Jeg-3 cells, dose-response; format: cell-based; settings: Jeg-3 cells, dose-response
Description: Since rubella can cause congenital infections, we next developed assays in the human trophoblast cell line Jeg-3.
as §2, §3

[4] = cell number (cell viability) in A549 cells, Hoechst 33342, automated microscopy; format: cell-based, human; settings: human
Description: as §1, §2, §3

A549 cells [5] = experiment: ATPLite assay of cytotoxicity in A549 cells; format: cell-based, human
Description: To determine whether LY2090314 is targeting GSK-3 or potentially a different target, we tested two additional GSK-3 inhibitors, AZD2858 and CHIR99021. […] We also validated the PIKfyve inhibitor APY0201, known to block entry of viruses that use endosomal entry routes and found robust activity (SI = 102). […] All three of the NAMPT inhibitors identified in the screen (STF-118804, GMX1778, and daporinad) validated with high potency (SI > 500).

Jeg-3 cells = experiment: cell number (cell viability) in Jeg-3 cells; format: cell-based, human
Description: as §2, with “The aggregated percent infection of the DMSO and 2 µM nanchangmycin control wells on each assay plate were used to calculate Z′-factors.” left out, “Candidate hits were selected as compounds with POC <40% and viability >60%, compared with vehicle control.” left out
Drugs were purchased as powders from Selleckchem, MedchemExpress, and MedKoo and suspended in DMSO. […] Infection at each drug concentration was normalized to aggregated DMSO plate control wells and expressed as POC (POC = %Infection sample/Average %Infection DMSO cont). […] SI was calculated as a ratio of the drug's CC50 and IC50 values (SI = CC50/IC50).

[6] = A549 cells (infected with rubella virus RA27/3), A549 cells, 1 µM, compared with vehicle alone, read-out: cell viability in primary screen

## Cc1c(-c2ccc(N3CCc4cccc(C(=O)Nc5nc6ccccc6s5)c4C3)nc2C(=O)O)cnn1CC12CC3CC(CC(C3)C1)C2 [A-1331852]
A549 cells [1]
  toxicity in A549 cells: significant toxicities
Rubella RA27/3 virus; A549 cells
  activity against rubella in A549 cells: little activity

## Cc1cccc(/C=N/Nc2cc(N3CCOCC3)n3nc(-c4ccncc4)cc3n2)c1 [APY0201]
Rubella RA27/3 virus; A549 cells
  selectivity index (SI = CC50/IC50): 102
Rubella virus [2]
  activity against rubella in HBMEC: showed activity
Rubella virus [3]
  activity against rubella in Jeg-3 cells: active

## CN1CCN(S(=O)(=O)c2ccc(-c3cnc(N)c(C(=O)Nc4cccnc4)n3)cc2)CC1 [AZD2858]
Rubella RA27/3 virus; A549 cells
  activity against rubella in A549 cells: little activity

## Cc1c[nH]c(-c2cnc(NCCNc3ccc(C#N)cn3)nc2-c2ccc(Cl)cc2Cl)n1 [CHIR99021]
Rubella RA27/3 virus; A549 cells
  activity against rubella in A549 cells: little activity

## Cn1cc(C2=C(c3cccc(N)c3)C(=O)NC2=O)c2ccccc21 [CP21R7]
A549 cells [1]
  cell viability in primary screen: > 60%
Rubella RA27/3 virus; A549 cells
  inhibition of infection in primary screen: > 60%

## N#CN=C(NCCCCCCOc1ccc(Cl)cc1)Nc1ccncc1 [GMX1778]
[4]; A549 cells, 1 µM, compared with vehicle alone, read-out: cell viability in primary screen
  viability at 48 h, 1 µM: > 60%
A549 cells [5]; Homo sapiens, A549, read-out: IC50 of ATP content depletion (ATPLite)
  pIC50: 7.70
Rubella RA27/3 virus; A549 cells
  selectivity index (SI = CC50/IC50): > 500
Rubella RA27/3 virus
  inhibition at 1 µM: > 60%
Rubella virus [2]
  activity against rubella in HBMEC: showed activity
Rubella virus [3]
  activity against rubella in Jeg-3 cells: active

## CCc1c(O)cc(O)c(C(=O)c2ccc(OCCN3CCOCC3)c(OC)c2)c1CC(=O)N(CCOC)CCOC.Cl [KW-2478]
A549 cells [1]
  cell viability in primary screen: > 60%
Rubella RA27/3 virus; A549 cells
  inhibition of infection in primary screen: > 60%

## O=C1NC(=O)C(c2cnc3ccccn23)=C1c1cn2c3c(cc(F)cc13)CN(C(=O)N1CCCCC1)CC2 [LY2090314]
Jeg-3 cells; Jeg-3 cells
  toxicity in Jeg-3 cells: no toxicity
[4]; [6]
  viability at 48 h, 1 µM: > 60%
Rubella RA27/3 virus; A549 cells
  selectivity index (SI = CC50/IC50): > 2000
Rubella RA27/3 virus
  inhibition at 1 µM: > 60%
Rubella virus [2]
  activity against rubella in HBMEC: showed activity
Rubella virus [3]
  activity against rubella in Jeg-3 cells: no activity

## CN1CCC(NC(=O)c2cc(-c3c(O)cc(O)cc3Oc3ccc([N+](=O)[O-])cc3)on2)CC1 [NMS-E973]
Rubella RA27/3 virus; A549 cells
  inhibition of infection in primary screen: > 60%

## Cc1ccc(S(=O)(=O)Cc2nc(-c3ccc(C(=O)NCc4cccnc4)cc3)oc2C)cc1 [STF-118804]
A549 cells [1]
  cell viability in primary screen: > 60%
A549 cells [5]; A549 cells, read-out: IC50 of ATP content depletion (ATPLite)
  pIC50: 8.00
Rubella RA27/3 virus; A549 cells
  inhibition of infection in primary screen: > 60%
Rubella virus [2]
  activity against rubella in HBMEC: showed activity
Rubella virus [3]
  activity against rubella in Jeg-3 cells: active

## N#Cc1c(Oc2ccc(F)c(NC(=O)Cc3cccc(C(F)(F)F)c3)c2)ccc2nc(NC(=O)C3CC3)sc12 [TAK-632]
Rubella RA27/3 virus; A549 cells
  activity against rubella in A549 cells: little activity

## C/C=C/C[C@@H](C)[C@@H](O)[C@H]1C(=O)N[C@@H](CC)C(=O)N(C)[C@H](C)C(=O)N(CC)[C@@H](C(C)C)C(=O)N[C@@H](C(C)C)C(=O)N(C)[C@@H](CC(C)C)C(=O)N[C@@H](C)C(=O)N[C@H](C)C(=O)N(C)[C@@H](CC(C)C)C(=O)N(C)[C@@H](CC(C)C)C(=O)N(C)[C@@H](C(C)C)C(=O)N1C [alisporivir]
Rubella RA27/3 virus; A549 cells
  activity against rubella in A549 cells: little activity

## Cc1cccc(/C=N/Nc2cc(N3CCOCC3)nc(OCCc3ccccn3)n2)c1 [apilimod]
Rubella RA27/3 virus; A549 cells
  selectivity index (SI = CC50/IC50): > 8
Rubella virus [2]
  activity against rubella in HBMEC: showed activity
Rubella virus [3]
  activity against rubella in Jeg-3 cells: active

## O=C(/C=C/c1cccnc1)NCCCCC1CCN(C(=O)c2ccccc2)CC1 [daporinad]
[4]; [6]
  viability at 48 h, 1 µM: > 60%
A549 cells [5]; Homo sapiens, A549 cells, read-out: IC50 of ATP content depletion (ATPLite)
  pIC50: 8.00
Rubella RA27/3 virus; A549 cells
  selectivity index (SI = CC50/IC50): > 500
Rubella RA27/3 virus
  inhibition at 1 µM: > 60%
Rubella virus [2]
  activity against rubella in HBMEC: showed activity
Rubella virus [3]
  activity against rubella in Jeg-3 cells: active

## COC1=C2C[C@@H](C)C[C@H](OC)[C@H](O)[C@@H](C)/C=C(\C)[C@H](OC(N)=O)[C@@H](OC)/C=C\C=C(/C)C(=O)NC(=CC1=O)C2=O [geldanamycin]
Jeg-3 cells
  toxicity in Jeg-3 cells: high toxicity
[4]
  viability at 48 h, 1 µM: > 60%
Rubella RA27/3 virus; A549 cells
  selectivity index (SI = CC50/IC50): > 163
Rubella RA27/3 virus
  inhibition at 1 µM: > 60%
Rubella virus [2]
  activity against rubella in HBMEC: showed activity

## COc1c(C)c2c(c(O)c1C/C=C(\C)CCC(=O)O)C(=O)OC2 [mycophenolic acid]
A549 cells [1]; human, 48 h
  toxicity in A549 cells: higher toxicity in A549 cells than in Jeg-3 cells
Rubella RA27/3 virus; A549 cells
  selectivity index (SI = CC50/IC50): 6
Rubella virus [2]
  activity against rubella in HBMEC: showed activity
Rubella virus [3]
  activity against rubella in Jeg-3 cells: active

## CO[C@H]1CC[C@@H](O[C@H]2C[C@H]([C@]3(C)CC[C@]4(C[C@H](O)[C@@H](C)[C@@H]([C@@H](C)/C=C(\C)C(=O)[C@H](C)C[C@H](C)C(=O)O)O4)O3)O[C@]3(O[C@@H]([C@H]4O[C@@](O)(CO)[C@H](C)C[C@@H]4C)C[C@@H]3C)[C@@H]2C)O[C@@H]1C [nanchangmycin]
A549 cells [1]; A549 cells, cell number, read-out: half-maximal cytotoxicity concentration (CC50)
  CC50: 3000 nM
Rubella RA27/3 virus; A549 cells, 48 hpi, read-out: half-maximal inhibitory concentration (IC50), rubella virus infection
  pIC50: 7.52
Rubella RA27/3 virus; A549 cells, MOI = 0.2, 48 hpi, read-out: EC50 (printed in Fig. 1B)
  pEC50: 7.52
Rubella virus [3]
  activity against rubella in Jeg-3 cells: active

## CC1(C)CCC(c2ccc(Cl)cc2)=C(CN2CCN(c3ccc(C(=O)NS(=O)(=O)c4ccc(N[C@H](CCN5CCOCC5)CSc5ccccc5)c(S(=O)(=O)C(F)(F)F)c4)cc3)CC2)C1 [navitoclax]
A549 cells [1]
  toxicity in A549 cells: significant toxicities
Rubella RA27/3 virus; A549 cells
  activity against rubella in A549 cells: little activity

## COC1=CC(c2cc3ccccc3[nH]2)=N/C1=C\c1[nH]c(C)cc1C [obatoclax]
A549 cells [1]
  toxicity in A549 cells: significant toxicities
Rubella RA27/3 virus; A549 cells
  activity against rubella in A549 cells: little activity
Rubella virus [2]
  activity against rubella in HBMEC: showed activity
Rubella virus [3]
  activity against rubella in Jeg-3 cells: active
